We go through three molecules from paper PMC4451689, “A Novel Direct Factor Xa Inhibitory Peptide with Anti-Platelet Aggregation Activity from Agkistrodon acutus Venom Hydrolysates” (Scientific Reports, 2015).

The subject of one series is bleeding time in mice. Description: Bleeding time (tail cutting method). The series is classed as in vivo. The settings on record: n = 10; for bleeding time: tail in saline 37 °C, 20-min recording, mean ± SD. As to the method:
Fifteen minutes after the administration of ACH-11 (1, 3 and 9 mg/kg), aspirin (9 mg/kg for 30 min) and the vehicle, a 3 mm-long tail tip was cut from the mice, and the remaining tail was immersed immediately into saline at 37 °C. The accumulated bleeding time (including periods of re-bleeding) was recorded over a 20-min period. Data are presented as the mean ± SD (n = 10). ^****P < 0.0001, ^**P < 0.01 versus vehicle, analyzed by one-way ANOVA, followed by the Tukey multiple comparison test.
(§1) Institute of Cancer Research (ICR) mice (18–22 g), Sprague-Dawley rats (180–250 g) and New Zealand white rabbits (2–2.5 kg) were purchased from Nanjing Qinglongshan Animal Center (Jiangsu province, China). They were housed in a temperature-controlled room at 25 ± 2 °C and 50 ± 5% relative humidity with a l2 h dark/light cycle. They were given free access to food and water ad libitum. The animals were acclimatized for at least 1 week prior to use. All experiments were carried out in accordance with the guidelines and the regulations of the Ethical Committee of the China Pharmaceutical University. The protocols were approved by the Institutional Animal Care and Use Committee of the China Pharmaceutical University.
Bleeding time of the mice was measured by a tail cutting method as described previously. Mice were randomly divided into five groups (both sexes, 10 per group), including a vehicle group, a reference drug group (9 mg/kg of aspirin-treated) and three sample groups (1, 3 and 9 mg/kg of ACH-11-treated).

Series [1] relates to U46619-induced rabbit platelet aggregation. In words: In vitro platelet aggregation assay, U46619-induced. The series is classed as cell-based. The settings on record: U46619 6 μM, rabbit PRP, turbidimetric, preincubated 5 min; 95% CI 415.62–525.95 μM. As to the method:
(§2) Figure 5 ACH-11 inhibited ADP- and U46619-induced rabbit platelet aggregation in vitro. PRP was preincubated for 5 min with different concentrations of ACH-11 (0.1, 0.25, 0.5 and 1 mg/mL) or the vehicle. Platelet aggregation was initiated with ADP (10 μM), U46619 (6 μM), thrombin (3 U/mL) or collagen (2.5 μg/mL). Data are the mean ± SD (n = 3), ^****P < 0.0001 and ^*P < 0.05 versus vehicle, analyzed by one-way ANOVA, followed by the Tukey multiple comparison test.
(§3) Institute of Cancer Research (ICR) mice (18–22 g), Sprague-Dawley rats (180–250 g) and New Zealand white rabbits (2–2.5 kg) were purchased from Nanjing Qinglongshan Animal Center (Jiangsu province, China). They were housed in a temperature-controlled room at 25 ± 2 °C and 50 ± 5% relative humidity with a l2 h dark/light cycle. They were given free access to food and water ad libitum. The animals were acclimatized for at least 1 week prior to use. […]
(§4) In vitro platelet aggregation assays were performed according to the turbidimetric method, as described previously. […] The extent of platelet aggregation inhibition by ACH-11 was calculated by the following formula (2): [drawing 2] where X represents the maximum aggregation rate of 5% DMSO-treated PRP and Y represents the maximum aggregation rate of sample-treated PRP. […]

Series [2] has as its target T1, FXa (Homo sapiens, UniProt P00742). Description: Determination of the inhibitory constant for FXa (kinetics, Lineweaver-Burk). The series is classed as biochemical. As to the method:
Figure 3 Kinetic activity of ACH-11 to FXa in vitro. Lineweaver-Burk plot (inset) for ACH-11 kinetics in PBS at pH 8.34 and 37 °C with mixed inhibition in the presence of different concentrations of ACH-11: 0 μM (slope of 0.376), 5 μM (slope of 0.528) and 10 μM (slope of 0.698). The plots represent the mean of 3 independent measurements.
Enzyme kinetic activity was assayed as described earlier, with minor modifications. All enzymatic reactions were carried out in PBS at pH 8.34 and at 37 °C. Freshly prepared FXa at a constant concentration of 1 nM was used in each reaction. ACH-11 was dissolved in 5% DMSO. Activities were measured for 4 different fixed concentrations of substrate (73.5, 147, 294 and 588 μM) in different concentrations of ACH-11 (0, 5 and 10 μM). The rates of the enzymatic reactions were monitored at 405 nm for 20 min using the Powerwave XS (Biotek, USA).

The test system of series [3] is ADP-induced rabbit platelet aggregation. In words: In vitro platelet aggregation assay, ADP-induced. It is filed as cell-based. Conditions: ADP 10 μM, rabbit PRP, turbidimetric, preincubated 5 min; 95% CI 185.36–225.02 μM. How it is done:
as §2, §3, §4

Series [4] deals with ADP-induced acute pulmonary thrombosis in mice. Description: ADP-induced acute pulmonary thrombosis in mice. The series is classed as in vivo, ICR mice. The settings on record: aspirin 20 mg/kg, ADP 300 mg/kg i.v. How it is done: To examine whether ACH-11 exerted antithrombotic effects in vivo, the peptide was challenged in an acute pulmonary thrombosis model in mice. Aspirin, which is a clinical anti-thrombosis medicine that acts as a selective COX-1 inhibitor, was used as a positive control. In this model, small thrombi formed by intravenous injection of ADP (300 mg/kg) occluded pulmonary vessels, resulting in paralysis or death of the mice.
as §1
ADP-induced acute pulmonary thrombosis in mice was performed as described previously. Sixty ICR mice (18–22 g) were fasted overnight and randomly divided into 6 groups, with 10 mice per group (males and females in half). […]

Series [5] deals with arterio-venous shunt thrombosis in rats. In words: In vivo arterio-venous shunt thrombosis in rats. The arrangement: species or system Sprague-Dawley rats. Conditions: aspirin 20 mg/kg, rat; mean ± SEM, n = 6. How it is done: Figure 6 ACH-11 inhibited arterio-venous shunt thrombosis in rats in vivo. After the administration of ACH-11 (0.33, 1 and 3 mg/kg), aspirin and the vehicle, rats were anesthetized by intraperitoneal injection of chloral hydrate (350 mg/kg), and an arterio-venous shunt tube (12 cm, containing 10-cm long of 4 braided silk thread) was installed between the right carotid artery and left jugular vein of each rat. After 20 min, the silk thread was removed from the shunt tube, and its wet weight was immediately measured. The dry weight of the thread was measured 6 h later at room temperature. The wet and dry weights of the formed thrombi were determined by subtracting the pre-experiment weights of the wet and dry 6-cm threads, respectively. Data are the mean ± SD, ^*P < 0.05, ^***P < 0.001 and ^****P < 0.0001 versus vehicle, n = 6, analyzed by one-way ANOVA, followed by the Tukey multiple comparison test. […]
Antithrombotic activity of ACH-11 in vivo was determined in a rat arterio-venous shunt thrombosis model as described previously[39] with a minor modification. […] Its wet weight was measured immediately. The dry weight of thread was measured 6 h later at room temperature. The wet and dry weights of the thrombi were determined by subtracting the pre-experimental weights of the wet and dry 6-cm threads, respectively.

Series [6] has as its target T1, FXa. Description: Inhibition of amidolytic activity of FXa (chromogenic substrate S-2222). It is filed as biochemical. The settings on record: sample dissolved at 5 mg/mL, PBS pH 8.34, 37 °C, n = 3, compared with the other fractions/hydrolysates. As to the method:
Figure 1 Selection of enzymatic hydrolysis conditions and bioassay-directed chromatographic separation of the FXa inhibitory peptide. (a) FXa inhibitory activities of Agkistrodon acutus venom hydrolysates obtained by treatment with pepsin, papain, neutrase and alcalase at 1, 2, 3, 4, 8, 12 h intervals. (b) Agkistrodon acutus venom hydrolysate produced by neutrase (3 h) was separated on a gel filtration column packed with Sephadex G-50 (2.6 × 100 cm). The hydrolysate was eluted by distilled water at a flow rate of 0.6 mL/min, collecting fractions of 3.6 mL. (c) The FXa inhibitory activities of fractions A-E. (d) Fraction C was separated on a Hedera ODS-2 column (20 × 250 mm). (e) The FXa inhibitory activities of fractions C1-C8. […]
The lyophilized neutrase hydrolysate (0.2 g) was dissolved in 10 mL of distilled water and applied to a Sephadex G-50 column (2.6 × 100 cm) equilibrated with distilled water and eluted with the same buffer at a flow rate of 0.6 mL/min. The eluents were monitored at 280 nm and were collected at 6 min intervals. […] The UV absorbance was monitored at 214 nm.
Inhibition of the amidolytic activity of FXa was analyzed by a method described previously, with minor modifications. Enzymatic activity was measured in PBS at pH 8.34 using the chromogenic substrate method. […] The absorbance-time curve and the slope of the curve (Vi) were used to represent the activity of the enzyme. […]

Marks after values point to notes of the source that are not given here. Where a SMILES comes first, the peptide text is derived from it.

T1 sequence (P00742 235-488 limits assumed): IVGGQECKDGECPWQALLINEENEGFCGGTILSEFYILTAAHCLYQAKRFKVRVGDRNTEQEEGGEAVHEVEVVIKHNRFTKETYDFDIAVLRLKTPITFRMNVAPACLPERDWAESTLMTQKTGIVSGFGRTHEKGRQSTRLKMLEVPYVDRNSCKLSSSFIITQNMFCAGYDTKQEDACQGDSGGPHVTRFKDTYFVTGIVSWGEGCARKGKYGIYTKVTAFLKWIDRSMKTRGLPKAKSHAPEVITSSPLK
T1 sequence (P00742 41-179 partner limits assumed): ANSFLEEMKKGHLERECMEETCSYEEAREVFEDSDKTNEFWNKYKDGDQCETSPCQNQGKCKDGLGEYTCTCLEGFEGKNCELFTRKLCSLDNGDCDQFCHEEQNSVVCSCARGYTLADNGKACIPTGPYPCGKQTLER

As to `CC[C@H](C)[C@H](NC(=O)[C@H](CCCNC(=N)N)NC(=O)[C@@H]1CCCN1C(=O)[C@H](Cc1ccccc1)NC(=O)[C@@H](NC(=O)[C@@H](N)CC(C)C)[C@@H](C)O)C(=O)N[C@H](C(=O)N[C@@H](Cc1ccccc1)C(=O)N[C@H](C(=O)N[C@@H](CC(C)C)C(=O)NCC(=O)O)C(C)C)C(C)C` [ACH-11, LTFPRIVFVLG] (H-LTFPRIVFVLG-OH), the bleeding time in the series with bleeding time in mice (ACH-11 1 mg/kg, 15 min after administration) was found to be 10.71 ± 2.98 min; in the series with bleeding time in mice (ACH-11 3 mg/kg, 15 min after administration) it was 11.73 ± 2.68 min; with bleeding time in mice (ACH-11 9 mg/kg, 15 min after administration), 14.01 ± 1.88 min. The “bleeding time (effect in words)” value in the series with bleeding time in mice (ACH-11 3 and 1 mg/kg, compared with vehicle) is listed as “did not significantly prolong the bleeding time”. Besides, the IC50 in series [1] was 468 µM; in series [3], 204 µM. Besides, on FXa [2] (PBS pH 8.34, 37 °C, FXa 1 nM, S-2222 73.5-588 μM, ACH-11 0, 5, 10 μM, 5% DMSO, mixed inhibition, mean of 3 independent measurements, read-out: Ki value for FXa inhibition towards S-2222), the Ki worked out at 9.02 µM. Moreover, the “change in Vmax and Km of FXa towards S-2222” value at FXa [2] (in the presence of ACH-11, PBS pH 8.34, 37 °C) is listed as “A decrease in the Vmax value with a subsequent increase in the Km value”.

As for `CC(=O)Oc1ccccc1C(=O)O` [Aspirin, aspirin], the bleeding time in the series on bleeding time in mice (aspirin 9 mg/kg, 30 min after administration) is reported as 17.03 ± 2.86 min. The Numbers of lethal/total in series [4] (vehicle 9/10, P = 0.0055 versus vehicle) is 2/10. For the same molecule, in series [4] (vehicle 10%, P = 0.0055 versus vehicle, n = 10), the Protection rate is listed as 80^** %. Besides, in series [5], the “reduction of thrombus weight” value came to 59.10 ± 2.98%.

In the case of “LTFPRIVFVLG [fraction C4, RP-HPLC fraction of fraction C, purity greater than 96%; peptide … (natural ACH-11)]”, the “FXa inhibitory activity (in words)” value at FXa [6] is on record as “displayed the highest FXa inhibitory activity”.
